Reference: patent publication US10577399B2, “Modified lantibiotics and methods of making and using the modified lantibiotics” (priority 2016, dated 2020)
No end group written: not given here.

Legend:
[1] = test system: S. aureus ATCC 25923; assay: MIC/MLC assay against S. aureus; type: cell-based, Staphylococcus aureus; conditions: Table 11
[2] = test system: S. pneumoniae AI8; assay: MIC against clinical S. pneumoniae isolate AI8; type: cell-based, Streptococcus pneumoniae; conditions: 50% blood added
Method: (§1) Minimum Inhibitory Concentrations (MICs) were determined according to previously published protocol^31. A stock solution of the antibiotics tested was first suspended in 50% acetonitrile (ACN) at a concentration 640 μg/mL. This stock was subsequently diluted 2-fold until a final concentration 0.156 μg/mL was reached. Subsequently, 10 μl of each dilution was placed into a well on a 96 well microtiter plate. M. luteus ATCC 10240, S. pneumoniae, and B. subtilis PY79 were grown overnight in THyex at 37° C. Cultures were diluted in the morning to 0.1 OD600 and allowed to grow to 0.6 OD600. This culture was diluted a 100-fold in fresh THyex media and then 400 μl of this culture was added to 10 mL of fresh THyex. The suspension contains approximately 10^5 colony forming units (CFUs). The bacterial suspension (190 μL) was added to each well containing 10 μL of antibiotic suspension or solvent blank. […] Following the 15 minute pretreatment, 190 μL was added to each well as described above. The MIC is described as the […] concentration of antibiotic that prevented visible growth after 24 hours.
(§2) Selective activity and stability of analogs: Several core peptide mutants are provided that have improved activity against our ATCC strain of S. pneumoniae. […]

[3] = test system: M. luteus ATCC 10240; type: cell-based, Micrococcus luteus; conditions: Table 11
Method: as §1
FIG. 11 illustrates the bioactivity of various core peptide mutants of mutacin 1130. The activity of the core mutant peptides is expressed as a ratio of the area of the zone of inhibition of each mutant strain to the area of the zone of inhibition of the wild-type strain against indicator strain of Micrococcus luteus. […] The deferred antagonism assay is an overlay assay of the indicator strain onto plates containing heat killed colonies of the mutacin producer strain after growing overnight. Core peptide mutants having inhibitory activity were isolated and the purified products were further evaluated by a standard minimum inhibitory concentration (MIC) assay.

[4] = test system: C. accolens KPL 1818; assay: MIC/MLC assay against C. accolens KPL 1818; type: cell-based; conditions: THyex broth with 1% Tween 80
[5] = test system: M. luteus ATCC 10240; assay: Deferred antagonism (overlay) assay, zone of inhibition; type: cell-based, Micrococcus luteus; conditions: relative to wild-type strain
Method: The deferred antagonism assay was performed as previously described^39. S. mutans strains were grown overnight in THyex broth at 37° C. The cultures were diluted to 0.1 OD OD600 and grown to mid-logarithmic phase before diluting to 0.05 OD600. Then, 2 μl of the cultures were spotted on THyex plates in duplicates of triplicates. The wild-type S. mutans JH1140 and S. mutans ΔmutA were used as positive and negative controls for activity, respectively. The plates were incubated for 18 hours in a candle jar at 37° C. After incubation, the strains were heat killed at 65° C. for 90 minutes. Fresh M. luteus grown overnight at 37° C. on THyex plates were used to inoculate pre-warmed THyex broth. The culture was grown to 0.6 to 0.8 OD before diluting to 0.2 OD600. The culture was further diluted 25-fold in melted (42° C.) THyex top agar. Approximately 5 mL of the top agar solution was spread on the heat killed bioassay plates and allowed to cool for 10 minutes. The plates were then placed in the incubator (at 37° C.) for 18 hours.
Streptococcus mutans ATCC 55676 (wild-type) and the mutants that were at an OD600 of 0.2 were spotted in triplicates on a pre-warmed THyex agar plate (150×15 mm) and allowed to dry. This assay was performed in this manner to ensure that each sample had the same colony size for comparing zones of inhibition. The plate was incubated for 24 hours then placed in an oven at 50° C. for thirty minutes to kill the bacteria before the indicator strain was overlaid. Heat killing the bacteria prevents any further antimicrobial compound production so that results seen are from single day incubation. Zone diameter was measured in millimeters across the plate and compared to wild-type (i.e. zone I for ATCC compared to zone I of Trp4Ala, etc.).

[6] = test system: S. pneumoniae AI11; assay: MIC against clinical S. pneumoniae isolate AI11; type: cell-based, Streptococcus pneumoniae; conditions: 50% blood added
Method: as §1, §2

[7] = test system: S. pneumoniae ATCC 27336; type: cell-based, Streptococcus pneumoniae; conditions: Table 11
Method: as §1, with “hours. […]” for “hours.”

[8] = test system: S. pneumoniae AI17; assay: MIC against clinical S. pneumoniae isolate AI17; type: cell-based, Streptococcus pneumoniae; conditions: 50% blood added
Method: as §1, §2

[9] = test system: C. accolens ATCC 49725; assay: MIC/MLC assay against C. accolens ATCC 49725; type: cell-based; conditions: THyex broth with 1% Tween 80
[10] = test system: S. pneumoniae AI16; assay: MIC against clinical S. pneumoniae isolate AI16; type: cell-based, Streptococcus pneumoniae; conditions: 50% blood added
Method: as §1, §2

[11] = test system: S. pneumoniae AI14; assay: MIC against clinical S. pneumoniae isolate AI14; type: cell-based, Streptococcus pneumoniae; conditions: 50% blood added
Method: as §1, §2

[12] = test system: B. subtilis PY79 cells; assay: Confocal microscopy localization of fluorescein labeled peptides; type: cell-based, Bacillus subtilis; conditions: 10 μg/mL, 15 minutes
Method: B. subtilis PY79 was grown and treated with fluorescein labeled peptide as previously described^39. A fresh plate of B. subtilis was used to inoculate THyex broth and incubated approximately 16 hours at 37° C. The culture was diluted 20-fold and placed back in the incubator for 3 hours at 37° C. Then, 100 μl of the culture was incubated with the antibiotic (10 μg/mL) for 15 minutes. The cells were pelleted and resuspended in 100 μl of phosphate buffer solution (PBS). The wash step was repeated three times before fixing with 1.6% formaldehyde in PBS. After fixation the cells were washed with PBS three more times and the remaining pellet was suspended in 50 μL of PBS. The sample (30 μL) was added to a slide and observed using an Olympus confocal microscope with a 100×/0.90 dry objective. A 488 nm argon laser was used to excite the fluorophore. For the competition assay, the bacterial culture was initially incubated with mu1140-COOH or native mutacin 1140 at a concentration of 10 μg/mL for 15 minutes, washed, and resuspended in fresh media. 10 μg/mL of fluorescein labeled nisin was then added for 15 minutes, before following the wash protocol previously stated.

Row | Substance | S. aureus ATCC 25923 MIC [1] | S. aureus ATCC 25923 MLC [1] | MIC S. pneumoniae AI8 [2] | M. luteus ATCC 10240 MIC [3] | M. luteus ATCC 10240 MLC [3] | C. accolens KPL 1818 MIC [4] | C. accolens KPL 1818 MLC [4] | zone of inhibition / inhibitory activity in deferred antagonism assay [5] | MIC S. pneumoniae AI11 [6] | S. pneumonia ATCC 27336 MIC [7] | S. pneumonia ATCC 27336 MLC [7] | MIC S. pneumoniae AI17 [8] | C. accolens ATCC 49725 MIC [9] | C. accolens ATCC 49725 MLC [9] | MIC S. pneumoniae AI16 [10] | MIC S. pneumoniae AI14 [11] | in vivo localization pattern of fluorescein labeled peptide [12] | in vivo localization pattern of fluorescein labeled peptide ([12]; listed as Fluorescein conjugated nisin)
1 | T14A: core peptide mutant of mutacin 1140, Threonine 14 replaced by Alanine (FKSWSLCTPGCARAGSFNSYCC; UniProt O68586 42-63, looked up, variant T14A) [Mutant T14A] | 8 micrograms per milliliter | 16 micrograms per milliliter | 8 micrograms per milliliter | 0.125 micrograms per milliliter | 0.125 micrograms per milliliter | 0.5 micrograms per milliliter | 2 micrograms per milliliter | no change in activity | 4 micrograms per milliliter | 0.5 micrograms per milliliter | 0.5 micrograms per milliliter | 8 micrograms per milliliter | 0.25 micrograms per milliliter | 0.25 micrograms per milliliter | 8 micrograms per milliliter | 2 micrograms per milliliter |  | 
2 | T14G: core peptide mutant of mutacin 1140, Threonine 14 replaced by Glycine (FKSWSLCTPGCARGGSFNSYCC; not fully specified; ends and bridges not checked; UniProt O68586 42-63, looked up, variant T14G) [Mutant T14G] | >32 micrograms per milliliter | >32 micrograms per milliliter | 8 micrograms per milliliter | 0.0625 micrograms per milliliter | 0.0625 micrograms per milliliter | 0.25 micrograms per milliliter | 0.5 micrograms per milliliter |  | 2 micrograms per milliliter | 0.5 micrograms per milliliter | 0.5 micrograms per milliliter | 8 micrograms per milliliter | 0.0625 micrograms per milliliter | 0.0625 micrograms per milliliter | 8 micrograms per milliliter | 1 micrograms per milliliter |  | 
3 | fluorescein labeled nisin: nisin containing a C-terminal conjugate of fluorescein (ITSISLCTPGCKTGALMGCNMKTATCHCSIHVSK-fluorescein; ends and bridges not checked; also: lantibiotic thioether (lanthionine) rings and dehydrated residues, places not given here; UniProt P13068 24-57, looked up) |  |  |  |  |  |  |  |  |  |  |  |  |  |  |  |  | large green patches on the cell surface | binds and abducts lipid II to form patches
